Test results published in patent US4497822A, “Insecticidal N-benzoyl-N'-phenyl-N'-(R-thio)ureas” (Shell Oil Company, priority 1982, dated 1985).
Values after ≈ are worked out from the molar mass of the structure shown.

Experiments:
[1] = Solubility in xylene; type: physicochemical; details: organic solvent or mixture, o-xylene, 20° C., dark, liquid chromatography
Experimental: To illustrate the improved solubility in a common formulation solvent, xylene, of the compounds according to the invention, solubility tests were carried out with certain of these compounds and closely related compounds known from the literature. The test method is described below.
The compound (200 mg) was equilibrated with solvent (0.5 ml of o-xylene at 20° C. in the dark for 48 hours). After equilibration, the supernatant liquors were removed, centrifuged and then filtered. An aliquot portion of this (0.1 ml) was made up to volume (1 to 100 ml) with acetonitrile and then analyzed against standards by means of liquid chromatography.

[2] = tested on: Spodoptera littoralis larvae; test: Insecticidal activity, sprayed diet (Test 1 (a)), toxicity vs parathion; type: in vivo, Egyptian cotton leafworm (Spodoptera littoralis); details: second instar larvae; mortality 7 days after spraying; 50% mortality basis; standard parathion = 100
Experimental: (§1) The insecticidal and ovicidal activities of the compounds of the invention were assessed employing the pests, Egyptian cotton leafworm (Spodoptera littoralis, S.l.), mosquito (Aedes aegypti, A.a.) and eggs of Spodoptera littoralis, S.l.ov.
(§2) The test methods used for each species are described below. In each case the tests were conducted under normal insectary conditions (28° C.[…]; fluctuating light and humidity).
(§3) In each instance, the toxicity of the compound of the invention was compared to that of a standard pesticide (parathion), its relative toxicity then being expressed in terms of the relationship between the amount of compound of the invention and the amount of the standard pesticide required to produce the same percentage (50%) of mortality in the test insect. By assigning the standard pesticide an arbitrary rating of 100, the toxicities of the compounds of the invention were expressed in terms of the toxicity indices, which compares the toxicity of the compounds of the invention with that of the standard pesticide.
(a) Spodoptera littoralis--A solution or suspension of the test compound was made up over a range of concentrations in 10% acetone/water containing 0.025% Triton X100 (as surfactant). These solutions were sprayed using a logarithmic spraying machine onto petri dishes containing a nutritious diet on which the Spodoptera littoralis larvae had been reared. When the spray deposit had dried each dish was infested with 10 second instar larvae. Mortality assessments were made 7 days after spraying.

[3] = tested on: eggs of Spodoptera littoralis; test: Ovicidal activity, sprayed eggs (Test 1 (c)), toxicity vs parathion; type: in vivo, Egyptian cotton leafworm (Spodoptera littoralis); details: eggs less than 24 hours old; approximately five days; 50% mortality basis; standard parathion = 100
Experimental: as §1, §2
as §3, with “pesticide. That is to say, a test compound having a Toxicity Index of 50 would be half as active, while one having a Toxicity Index of 200 would be twice as active as the standard pesticide.” for “pesticide.”
(c) Spodoptera littoralis (ovicide)--Solutions as described in (a) above were prepared. Eggs less than 24 hours old were obtained as follows. Adult Spodoptera littoralis were held in large plastic cylinders containing blotting paper on which the moths laid their batches of eggs. Egg batches containing approximately 60-70 eggs were cut from the blotting paper with a 1 cm surround. These were placed, eggs uppermost, on filter paper in the deeper half of 5 cm disposable petri dishes and each batch of eggs was then sprayed with a different test solution or the control solution. The dishes were covered until the control eggs had hatched, approximately five days. The percentage ovicidal mortality was then calculated.

[4] = tested on: Aedes aegypti larvae; test: Insecticidal activity, larvae in treated water (Test 1 (b)), toxicity vs parathion; type: in vivo, mosquito (Aedes aegypti); parameters: key: Toxicity Index: parathion = 100; 200 = twice as active, 50 = half; details: early fourth instar larvae; final mortality when all larvae emerged as adults or died; 50% mortality basis; standard parathion = 100
Experimental: as §1, §2
as §3, with “pesticide. That is to say, a test compound having a Toxicity Index of 50 would be half as active, while one having a Toxicity Index of 200 would be twice as active as the standard pesticide.” for “pesticide.”
(b) Aedes aegypti--Several solutions of the test compound of varying concentration were prepared in acetone. 100 microliter quantities were added to 100 milliliters of tap water, the acetone being allowed to evaporate off. Ten early fourth instar larvae were placed in the test solution; after 48 hours the (surviving) larvae were fed with animal feed pellets, and the final percentage mortality assessed when all the larvae had either pupated and emerged as adults or died.

Structure (SMILES)	solubility at 48 h [1] [µg/mL]	Toxicity Index S.l. [2]	Toxicity Index S.l.ov. [3]	Toxicity Index A.a. [4]
O=C(NC(=O)c1ccccc1Cl)Nc1ccc(OC(F)(F)F)cc1 [1-(4-trifluoromethoxy-phenyl)-3-(2-chloro-benzoyl)-urea, reference compound]	2300 (≈ 6.41 mM)			
O=C(NC(=O)c1c(F)cccc1F)Nc1ccc(Oc2ccc(C(F)(F)F)cc2Cl)cc1 [1-(4-(4-trifluoromethyl-2-chlorophenoxy)phenyl)-3-(2,6-difluorobenzoyl)urea, reference compound]	5700 (≈ 12.1 mM)			
CC(C)(C)c1ccc(SN(C(=O)NC(=O)c2c(F)cccc2F)c2ccc(Cl)cc2)cc1 [Example 36]		42	0	22

Further lines, with some results ahead:

solubility at 48 h [1] [µg/mL]	Structure (SMILES)	Toxicity Index S.l. [2]	Toxicity Index S.l.ov. [3]	Toxicity Index A.a. [4]
18800 (≈ 30.1 mM)	O=C(NC(=O)N(Sc1ccccc1[N+](=O)[O-])c1ccc(Oc2ccc(C(F)(F)F)cc2Cl)cc1)c1c(F)cccc1F [Example 3]	4500	0	
3700 (≈ 7.23 mM)	O=C(NC(=O)N(Sc1ccccc1[N+](=O)[O-])c1ccc(OC(F)(F)F)cc1)c1ccccc1Cl [Example 1, 2-Chloro-N-[[[4-(trifluoromethoxy)phenyl]-N-[(2-nitrophenyl)thio]amino]carbonyl]benzamide]	750	210	220
